Laboratory results: patent US9220721B2, “Methods for heart regeneration” (The Salk Institute for Biological Studies, priority 2012, dated 2015)

Test system: cmlc2:GFP transgenic fish embryos
Assay: Morpholino and microRNA injections in zebrafish embryos
Type: in vivo
Settings: injection at one-cell stage
Description: Morpholino and microRNA Injections in Zebrafish Embryos. Morpholinos (Gene Tools) were dissolved in water at a 2 mM stock concentration and diluted to a 2 ng/nl working concentration in PBS/phenol red solution. Embryo injections were performed by injecting ˜1 nl morpholino solution at the 1-cell stage using a FemtoJet (Eppendorf). For microRNA mimic injection, a miR-99/100 equimolar mixture at 2 ng/nl in PBS was employed. Morphants were evaluated at 24, 48 and 72 h in a StereoLumar stereoscope (Zeiss).

Row | Substance | ventricle size
1 | Fntb morpholino: translation-blocking morpholino 5′-GCGCCTCTTCCATGATGAGCTCTCA-3′ (SEQ ID NO: 1128) (all phosphorodiamidate morpholino (PMO)) | significantly reduced ventricle size
2 | Smarca5 morpholino: translation-blocking morpholino 5′-CTTCTTCCCGCTGCTGCTCCATGCT-3′ (SEQ ID NO: 1129) (all phosphorodiamidate morpholino (PMO)) | significantly reduced ventricle size
